Experimental data from patent US11524966B1 (Valo Early Discovery, Inc., priority 2017, dated 2022).

biological target: T1, USP25 (USP25-His6, Boston Biochem E-546) (Homo sapiens, UniProt Q9UHP3); assay: Ubiquitin-Rhodamine 110 Assay for USP25 Activity, Example A-2; format: biochemical; details: Ubiquitin-Rhodamine 110 assay, Example A-2; read-out: USP25 A-2 IC50 range
T1 construct: His6; purchased Boston Biochem E-546
T1 sequence (Q9UHP3 1-1055): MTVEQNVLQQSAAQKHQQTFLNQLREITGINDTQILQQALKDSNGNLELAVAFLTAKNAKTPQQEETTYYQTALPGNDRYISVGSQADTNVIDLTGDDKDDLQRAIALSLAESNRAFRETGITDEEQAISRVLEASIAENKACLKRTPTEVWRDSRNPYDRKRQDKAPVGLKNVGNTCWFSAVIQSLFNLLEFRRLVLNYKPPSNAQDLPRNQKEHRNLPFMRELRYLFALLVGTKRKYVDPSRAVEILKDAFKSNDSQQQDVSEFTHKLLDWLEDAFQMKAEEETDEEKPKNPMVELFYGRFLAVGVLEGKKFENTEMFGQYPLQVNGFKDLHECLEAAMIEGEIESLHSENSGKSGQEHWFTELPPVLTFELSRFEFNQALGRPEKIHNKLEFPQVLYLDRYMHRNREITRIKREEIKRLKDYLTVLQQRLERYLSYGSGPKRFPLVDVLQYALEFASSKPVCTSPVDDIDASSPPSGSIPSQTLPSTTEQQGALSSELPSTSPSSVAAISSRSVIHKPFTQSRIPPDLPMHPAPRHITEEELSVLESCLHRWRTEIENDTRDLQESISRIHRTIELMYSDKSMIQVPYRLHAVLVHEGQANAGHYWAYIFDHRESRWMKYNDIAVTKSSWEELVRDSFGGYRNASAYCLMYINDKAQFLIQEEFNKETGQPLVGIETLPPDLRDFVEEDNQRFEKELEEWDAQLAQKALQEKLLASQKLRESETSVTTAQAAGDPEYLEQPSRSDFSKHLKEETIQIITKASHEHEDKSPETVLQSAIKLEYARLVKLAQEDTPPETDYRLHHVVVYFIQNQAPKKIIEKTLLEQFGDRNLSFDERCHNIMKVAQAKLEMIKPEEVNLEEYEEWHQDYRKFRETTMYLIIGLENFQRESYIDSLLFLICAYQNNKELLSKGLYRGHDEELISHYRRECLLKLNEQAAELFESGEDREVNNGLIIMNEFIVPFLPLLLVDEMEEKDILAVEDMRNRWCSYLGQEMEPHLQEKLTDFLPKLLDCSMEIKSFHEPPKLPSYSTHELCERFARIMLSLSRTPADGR
In short: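 Cleavage of ubiquitin-rhodamine 110 (25 nM, well below Km) by His-tagged USP25 at 75 pM is measured fluorimetrically after 45 min at room temperature and acid quench. Inhibitors are preincubated with enzyme for 30 minutes. IC50 values come from four-parameter logistic curve fitting.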

Row | SMILES | IC50
1 | Cc1ccc2c(N)c(C(=O)N[C@H]3COc4cc(N5C[C@H](OC6CC6)[C@@H](N)C5)ccc4C3)sc2n1 [Example 140, 3-amino-N-[(3R)-7-[(3S,4S)-3-amino-4-cyclopropoxypyrrolidin-1-yl]-3,4-dihydro-2H-1-benzopyran-3-yl]-6-methylthieno[2,3-b]pyridine-2-carboxamide] | 200 to 2000 nM
2 | Cc1ccc2c(N)c(C(=O)N[C@H]3COc4cc(N5C[C@H](OC6CCC6)[C@@H](N)C5)ccc4C3)sc2n1 [Example 141, 3-amino-N-[(3R)-7-[(3S,4S)-3-amino-4-cyclobutoxypyrrolidin-1-yl]-3,4-dihydro-2H-1-benzopyran-3-yl]-6-methylthieno[2,3-b]pyridine-2-carboxamide] | 50 to 200 nM
3 | CCO[C@H]1CN(c2ccc3c(n2)CC[C@H](NC(=O)c2sc4nc(C)ccc4c2N)C3)C[C@@H]1N [Example 142, 3-amino-N-[(6S)-2-[(3S,4S)-3-amino-4-ethoxypyrrolidin-1-yl]-5,6,7,8-tetrahydroquinolin-6-yl]-6-methylthieno[2,3-b]pyridine-2-carboxamide] | > 2000 nM
4 | CO[C@@H]1CN(c2ccc3c(c2)CC[C@H](NC(=O)c2sc4nc(C)ccc4c2N)C3)C[C@@H]1N [Example 143, 3-amino-N-[(2S)-6-[(3S,4R)-3-amino-4-methoxypyrrolidin-1-yl]-1,2,3,4-tetrahydronaphthalen-2-yl]-6-methylthieno[2,3-b]pyridine-2-carboxamide] | 200 to 2000 nM
5 | CO[C@@H]1CN(c2cc(F)c3c(c2)OC[C@H](NC(=O)c2sc4nc(C)ccc4c2N)C3)C[C@@H]1N [Example 145, 3-amino-N-[(3R)-7-[(3S,4R)-3-amino-4-methoxypyrrolidin-1-yl]-5-fluoro-3,4-dihydro-2H-1-benzopyran-3-yl]-6-methylthieno[2,3-b]pyridine-2-carboxamide] | 200 to 2000 nM
6 | CO[C@H]1CN(c2cc(F)c3c(c2)OC[C@H](NC(=O)c2sc4nc(C)ccc4c2N)C3)C[C@H]1N [Example 146] | 200 to 2000 nM
7 | CO[C@H]1CN(c2ccc3c(c2)OC[C@H](NC(=O)c2sc4nc(C)cnc4c2N)C3)C[C@H]1N [Example 148, 7-amino-N-[(3R)-7-[(3R,4S)-3-amino-4-methoxypyrrolidin-1-yl]-3,4-dihydro-2H-1-benzopyran-3-yl]-3-methylthieno[2,3-b]pyrazine-6-carboxamide] | 200 to 2000 nM
8 | CO[C@@H]1CN(c2ccc3c(c2)OC[C@H](NC(=O)c2sc4nc(C)sc4c2N)C3)C[C@@H]1N [Example 149, 6-amino-N-[(3R)-7-[(3S,4R)-3-amino-4-methoxypyrrolidin-1-yl]-3,4-dihydro-2H-1-benzopyran-3-yl]-2-methylthieno[2,3-d][1,3]thiazole-5-carboxamide] | 200 to 2000 nM
9 | CO[C@H]1CN(c2ccc3c(c2)OC[C@H](NC(=O)c2sc4nc(C)sc4c2N)C3)C[C@H]1N [Example 150] | 200 to 2000 nM
10 | CCO[C@@H]1CN(c2ccc3c(c2)OC[C@H](NC(=O)c2sc4nc(C)ccc4c2N)C3)C[C@@H]1N [Example 151, 3-amino-N-[(3R)-7-[(3S,4R)-3-amino-4-ethoxypyrrolidin-1-yl]-3,4-dihydro-2H-1-benzopyran-3-yl]-6-methylthieno[2,3-b]pyridine-2-carboxamide] | 200 to 2000 nM
11 | CCO[C@H]1CN(c2ccc3c(c2)OC[C@H](NC(=O)c2sc4nc(C)ccc4c2N)C3)C[C@H]1N [Example 152] | 200 to 2000 nM
12 | Cc1ccc2c(N)c(C(=O)N[C@H]3COc4cc(N5C[C@@H]6NCCO[C@@H]6C5)ccc4C3)sc2n1 [Example 153, N-[(3R)-7-[(4aS,7aR)-octahydropyrrolo[3,4-b]morpholin-6-yl]-3,4-dihydro-2H-1-benzopyran-3-yl]-3-amino-6-methylthieno[2,3-b]pyridine-2-carboxamide] | 200 to 2000 nM
13 | Cc1ccc2c(N)c(C(=O)N[C@H]3COc4cc(N5C[C@@H]6OCCN[C@@H]6C5)ccc4C3)sc2n1 [Example 154, N-[(3R)-7-[(4aR,7aS)-octahydropyrrolo[3,4-b]morpholin-6-yl]-3,4-dihydro-2H-1-benzopyran-3-yl]-3-amino-6-methylthieno[2,3-b]pyridine-2-carboxamide] | 200 to 2000 nM
14 | COC[C@@H]1CNCCN1c1ccc2c(c1)OC[C@H](NC(=O)c1sc3nc(C)ccc3c1N)C2 [Example 155, 3-amino-N-[(3R)-7-[(2S)-2-(methoxymethyl)piperazin-1-yl]-3,4-dihydro-2H-1-benzopyran-3-yl]-6-methylthieno[2,3-b]pyridine-2-carboxamide] | 50 to 200 nM
15 | COC[C@H]1CNCCN1c1ccc2c(c1)OC[C@H](NC(=O)c1sc3nc(C)ccc3c1N)C2 [Example 156, 3-amino-N-[(3R)-7-[(21)-2-(methoxymethyl)piperazin-1-yl]-3,4-dihydro-2H-1-benzopyran-3-yl]-6-methylthieno[2,3-b]pyridine-2-carboxamide] | 200 to 2000 nM
16 | COC[C@H]1CN(c2ccc3c(c2)OC[C@H](NC(=O)c2sc4nc(C)ccc4c2N)C3)CCN1 [Example 157, 3-amino-N-[(3R)-7-[(3R)-3-(methoxymethyl)piperazin-1-yl]-3,4-dihydro-2H-1-benzopyran-3-yl]-6-methylthieno[2,3-b]pyridine-2-carboxamide] | 200 to 2000 nM
17 | COC[C@@H]1CN(c2ccc3c(c2)OC[C@H](NC(=O)c2sc4nc(C)ccc4c2N)C3)CCN1 [Example 158, 3-amino-N-[(3R)-7-[(3S)-3-(methoxymethyl)piperazin-1-yl]-3,4-dihydro-2H-1-benzopyran-3-yl]-6-methylthieno[2,3-b]pyridine-2-carboxamide] | 200 to 2000 nM
18 | Cc1cc(C)c2c(N)c(C(=O)N[C@H]3COc4cc(N5CCNCC5)c(F)c(F)c4C3)sc2n1 [Example 159, 3-amino-N-[(3R)-5,6-difluoro-7-(piperazin-1-yl)-3,4-dihydro-2H-1-benzopyran-3-yl]-4,6-dimethylthieno[2,3-b]pyridine-2-carboxamide] | > 2000 nM
19 | Cc1cc(C)c2c(N)c(C(=O)N[C@@H]3COc4cc(N5CCNCC5)c(F)c(F)c4C3)sc2n1 [Example 160, 3-amino-N-[(3S)-5,6-difluoro-7-(piperazin-1-yl)-3,4-dihydro-2H-1-benzopyran-3-yl]-4,6-dimethylthieno[2,3-b]pyridine-2-carboxamide] | 200 to 2000 nM
20 | COC[C@@H]1CN(c2ccc3c(c2)OC[C@H](NC(=O)c2sc4nc(C)ccc4c2N)C3)C[C@@H]1N [Example 161, 3-amino-N-[(3R)-7-[(3R,4R)-3-amino-4(methoxymethyl)pyrrolidin-1-yl]-3,4-dihydro-2H-1-benzopyran-3-yl]-6-methylthieno[2,3-b]pyridine-2-carboxamide] | 200 to 2000 nM
21 | COC[C@H]1CN(c2ccc3c(c2)OC[C@H](NC(=O)c2sc4nc(C)ccc4c2N)C3)C[C@H]1N [Example 162, 3-amino-N-[(3R)-7-[(3S,4S)-3-amino-4-(methoxymethyl)pyrrolidin-1-yl]-3,4-dihydro-2H-1-benzopyran-3-yl]-6-methylthieno[2,3-b]pyridine-2-carboxamide] | 50 to 200 nM
22 | COC[C@@H]1CN(c2ccc3c(c2)OC[C@H](NC(=O)c2sc4nc(C)ccc4c2N)C3)C[C@H]1N [Example 163, 3-amino-N-[(3R)-7-[(3S,4R)-3-amino-4-(methoxymethyl)pyrrolidin-1-yl]-3,4-dihydro-2H-1-benzopyran-3-yl]-6-methylthieno[2,3-b]pyridine-2-carboxamide] | 200 to 2000 nM
23 | COC[C@H]1CN(c2ccc3c(c2)OC[C@H](NC(=O)c2sc4nc(C)ccc4c2N)C3)C[C@@H]1N [Example 164, 3-amino-N-[(3R)-7-[(3R,4S)-3-amino-4-(methoxymethyl)pyrrolidin-1-yl]-3,4-dihydro-2H-1-benzopyran-3-yl]-6-methylthieno[2,3-b]pyridine-2-carboxamide] | 200 to 2000 nM
24 | Cc1ccc2c(N)c(C(=O)N[C@H]3COc4cc(N5CC[C@@H]6CNC[C@@H]65)ccc4C3)sc2n1 [Example 165, N-[(3R)-7-[(3aR,6aR)-octahydropyrrolo[2,3-c]pyrrol-1-yl]-3,4-dihydro-2H-1-benzopyran-3-yl]-3-amino-6-methylthieno[2,3-b]pyridine-2-carboxamide] | 50 to 200 nM
25 | Cc1ccc2c(N)c(C(=O)N[C@H]3COc4cc(N5CC[C@H]6CNC[C@H]65)ccc4C3)sc2n1 [Example 166, N-[(3R)-7-[(3aS,6aS)-octahydropyrrolo[2,3-c]pyrrol-1-yl]-3,4-dihydro-2H-1-benzopyran-3-yl]-3-amino-6-methylthieno[2,3-b]pyridine-2-carboxamide] | 50 to 200 nM
